Where “and” joins values, the source holds several entries; their conditions need not be identical. Equal entries are not always repeated.
Tests used:
[1] = system: MCF7-CDK7-D97N cells; assay: Growth assay (SRB), MCF7 CDK7-D97N knock-in; type: cell-based, human; conditions: 4 days; for % Growth: MCF7 CDK7 D99N, biological reps
Description: (§1) To determine the IC50 of drug treatments on growth, cells were seeded in 96-well culture plates. Two days after seeding, the cells were treated with increasing concentrations of drugs and incubated for 4 days. Cell number was determined using the SRB assay (Skehan et al, [1990]), and IC50 values were calculated using non-linear regression curve fitting in GraphPad Prism v10. For all other growth experiments, cells were seeded into 96-well plates, and appropriate drugs were added 2 days after seeding. Cells were then incubated in an IncuCyte Zoom live-cell imager, with cell confluency measured every 6 h. Cell doubling times were determined by non-linear curve fitting (exponential growth equation) in GraphPad Prism v10.
Alt-R^TM S.p. Cas9 nuclease V3, Alt-R CRISPR-Cas9 crRNA, TracrRNA and the donor templates were obtained from Integrated DNA Technologies. […] Cells were treated with 0.7 µM of Alt-R HDR Enhancer V2 to improve HRD efficiency. Sequences of the CRISPRs in the crRNA and the donor templates are shown in the Reagents and tools table. Donor templates were designed to include non-coding substitutions to aid genome DNA PCR for identifying knock-in events and to facilitate cloning; these substitutions are noted in the Reagents and tools table.

[2] = system: 22Rv1 cells; assay: Growth assay (SRB), 22Rv1; type: cell-based, human; conditions: 22Rv1, 4 days, biological reps
Description: as §1

[3] = system: 22Rv1-SamR cells; assay: Growth assay (SRB), Samuraciclib-resistant 22Rv1; type: cell-based, human; conditions: for % Growth: 22Rv1 SamR, 4 days, biological reps
Description: as §1

[4] = system: MCF7 cells; assay: Growth assay (SRB), MCF7; type: cell-based, human; conditions: for % Growth: biological reps
Description: as §1

[5] = target: T1, CDK7-WT (Homo sapiens, UniProt P50613); assay: NanoBRET Target Engagement assay, K-10 tracer displacement in HEK293 cells; type: binding; conditions: CDK7 WT, replicates N1-N3
T1 construct: expressed in transfected cells; host or cells: HEK293
Description: (§2) Energy transfer between the NanoLuc fusion protein and a cell-permeable fluorescent energy transfer probe facilitates quantitative determination of target engagement in live cells (Wells et al, [2020]). Assays were conducted according to this previous report, using the optimal CDK7 probe, K-10, at a concentration of 0.5 µM.
(§3) CDK4, CDK6 and CDK7 and the respective mutant sequences, obtained as synthesised DNA fragments from IDT (Leuven), were cloned by HiFi DNA assembly (New England Biolabs) into the pNLF1-N NanoLuc protein fusion vector (Promega). HEK293 cells, transiently transfected with NanoLuc-CDK fusion constructs, were used for activity determination, utilising the NanoBRET Target Engagement Intracellular Kinase Assay. A CCND1 expression construct was co-transfected with the NanoLuc-CDK4 and NanoLuc-CDK6 fusion constructs. The recommended cell-permeable energy transfer probe, K-10, was used to assess target engagement, as detailed in the manufacturer’s methods (Promega). […] The BRET ratio (mBU) was calculated as acceptor emission (590–610 nm)/donor emission (410–490 nm) × 1000. The mBU values were plotted against the energy probe concentrations to determine maximal binding (Bmax) and Kd values. BRET signal competition by CDK inhibitors was used to determine compound binding to WT and mutant CDKs. […] Inhibitor binding was determined using a fourfold dilution series. mBU values were plotted against test compound concentrations in the presence of K10 tracer. EC50 values were determined using nonlinear regression curve-fitting. Test compound occupancy (%) was calculated using the equation [1 − (x − z)/(y − z)] × 100, where x = mBU in the presence of the test compound and K-10 tracer, y = mBU with K-10 tracer and vehicle control, and z = mBU in the absence of the K-10 tracer or test compound (Wells et al, [2020]).

[6] = target: T2, CDK7-D97N (Homo sapiens, UniProt P50613, D97N); assay: as above; type: binding; conditions: CDK7 D97N, replicates N1-N3
T2 construct: expressed in transfected cells; host or cells: HEK293
Description: as §2, §3

T1 sequence (P50613 whole entry): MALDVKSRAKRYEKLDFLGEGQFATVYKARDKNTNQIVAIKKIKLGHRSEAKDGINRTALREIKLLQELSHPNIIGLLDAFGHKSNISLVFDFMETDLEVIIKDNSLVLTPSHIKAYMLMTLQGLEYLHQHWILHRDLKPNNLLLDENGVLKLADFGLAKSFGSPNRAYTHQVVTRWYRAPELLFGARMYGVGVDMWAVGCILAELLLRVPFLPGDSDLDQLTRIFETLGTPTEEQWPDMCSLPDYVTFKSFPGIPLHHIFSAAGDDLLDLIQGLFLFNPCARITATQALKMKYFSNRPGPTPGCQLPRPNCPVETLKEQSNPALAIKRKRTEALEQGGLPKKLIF
T2 sequence (P50613 whole entry D97N): as the sequence (P50613 whole entry) above, with D97N counted along it

- IC50 ([1]; MCF7-CDK7-D97N, SRB): 68.7 nM
- IC50 ([4]; 4 days, SRB): 153 nM
- % Occupacy ([5]; Log10 Conc. (nM) 0.09): 16.74% and 4.33% and 5.86%
- % Occupacy ([5]; Log10 Conc. (nM) 0.69): 17.70% and 6.32% and 7.28%
- % Occupacy ([5]; Log10 Conc. (nM) 1.29): 29.22% and 3.65% and 10.56%
- % Occupacy ([5]; Log10 Conc. (nM) 1.89): 53.51% and 14.09% and 19.55%
- % Occupacy ([5]; Log10 Conc. (nM) 2.49): 85.19% and 65.85% and 67.10%
- % Occupacy ([5]; Log10 Conc. (nM) 3.10): 97.70% and 100.48% and 92.33%
- % Occupacy ([5]; Log10 Conc. (nM) 3.70): 102.14% and 100.08% and 100.97%
- % Occupacy ([5]; Log10 Conc. (nM) 4.30): 101.17% and 106.00% and 102.12%
- % Occupacy ([5]; Log10 Conc. (nM) -0.52): 21.00% and 8.28% and 9.27%
- % Occupacy ([5]; Log10 Conc. (nM) -1.12): 15.97% and 8.08% and 8.28%
- % Occupacy ([5]; Log10 Conc. (nM) -1.72): 12.78% and 7.38% and 8.51%
- % Occupacy ([6]; Log10 Conc. (nM) 0.09): 9.16% and 2.67% and 0.07%
- % Occupacy ([6]; Log10 Conc. (nM) 0.69): 13.92% and 3.61% and 4.36%
- % Occupacy ([6]; Log10 Conc. (nM) 1.29): 29.03% and 9.81% and 4.02%
- % Occupacy ([6]; Log10 Conc. (nM) 1.89): 74.11% and 30.96% and 26.31%
- % Occupacy ([6]; Log10 Conc. (nM) 2.49): 95.10% and 79.08% and 80.38%
- % Occupacy ([6]; Log10 Conc. (nM) 3.10): 97.98% and 96.38% and 96.98%
- % Occupacy ([6]; Log10 Conc. (nM) 3.70): 98.68% and 99.58% and 99.12%
- % Occupacy ([6]; Log10 Conc. (nM) 4.30): 99.99% and 100.77% and 101.05%
- % Occupacy ([6]; Log10 Conc. (nM) -0.52): 6.83% and 2.53% and 1.19%
- % Occupacy ([6]; Log10 Conc. (nM) -1.12): 11.58% and 4.35% and 1.55%
- % Occupacy ([6]; Log10 Conc. (nM) -1.72): 7.10% and 3.74% and 2.78%
Compound: CN(C)C/C=C/C(=O)Nc1ccc(C(=O)Nc2cccc(Nc3ncc(Cl)c(-c4c[nH]c5ccccc45)n3)c2)cc1 [THZ1]
- % Growth ([1]; Log10 Conc. (nM) 0.09): 97.12% and 98.47% and 91.37%
- % Growth ([1]; Log10 Conc. (nM) 0.69): 86.82% and 92.10% and 89.13%
- % Growth ([1]; Log10 Conc. (nM) 1.29): 76.30% and 76.07% and 72.54%
- % Growth ([1]; Log10 Conc. (nM) 1.89): 35.33% and 47.81% and 46.77%
- % Growth ([1]; Log10 Conc. (nM) 2.49): -1.00% and 8.40% and 7.81%
- % Growth ([1]; Log10 Conc. (nM) -0.52): 99.89% and 102.56% and 100.45%
- % Growth ([1]; Log10 Conc. (nM) -1.12): 96.07% and 101.58% and 94.36%
- % Growth ([2]; Log10 Conc. (nM) 0.09): 93.20% and 88.05%
- % Growth ([2]; Log10 Conc. (nM) 0.69): 85.45% and 77.80%
- % Growth ([2]; Log10 Conc. (nM) 1.29): 56.44% and 44.90%
- % Growth ([2]; Log10 Conc. (nM) 1.89): 5.80% and -0.07%
- % Growth ([2]; Log10 Conc. (nM) 2.49): -4.12% and -6.31%
- % Growth ([2]; Log10 Conc. (nM) 3.10): -6.49% and -7.67%
- % Growth ([2]; Log10 Conc. (nM) 3.70): -6.63% and -7.61%
- % Growth ([2]; Log10 Conc. (nM) -0.52): 98.36% and 93.94%
- % Growth ([2]; Log10 Conc. (nM) -1.12): 96.18% and 94.83%
- Sensitivity in growth assays ([3]; 22Rv1-SamR): remained sensitive
- % Growth ([3]; Log10 Conc. (nM) 0.09): 83.75% and 87.25%
- % Growth ([3]; Log10 Conc. (nM) 0.69): 68.41% and 67.61%
- % Growth ([3]; Log10 Conc. (nM) 1.29): 30.25% and 41.41%
- % Growth ([3]; Log10 Conc. (nM) 1.89): -7.69% and -2.73%
- % Growth ([3]; Log10 Conc. (nM) 2.49): -11.43% and -7.53%
- % Growth ([3]; Log10 Conc. (nM) 3.10): -11.82% and -8.43%
- % Growth ([3]; Log10 Conc. (nM) 3.70): -15.22% and -10.53%
- % Growth ([3]; Log10 Conc. (nM) -0.52): 93.15% and 99.90%
- % Growth ([3]; Log10 Conc. (nM) -1.12): 93.43% and 95.60%
- % Growth ([4]; Log10 Conc. (nM) 0.09, 4 days): 91.30% and 94.59% and 94.55%
- % Growth ([4]; Log10 Conc. (nM) 0.69, 4 days): 87.28% and 92.52% and 92.40%
- % Growth ([4]; Log10 Conc. (nM) 1.29, 4 days): 80.95% and 90.37% and 89.19%
- % Growth ([4]; Log10 Conc. (nM) 1.89, 4 days): 64.20% and 77.72% and 79.90%
- % Growth ([4]; Log10 Conc. (nM) 3.10, 4 days): -9.63% and -1.23% and -2.34%
- % Growth ([4]; Log10 Conc. (nM) 3.70, 4 days): -9.74% and -3.96% and -4.65%
- % Growth ([4]; Log10 Conc. (nM) -0.52, 4 days): 92.77% and 97.61% and 102.10%
- % Growth ([4]; Log10 Conc. (nM) -1.12, 4 days): 92.06% and 94.91% and 96.97%

Reference: paper PMC12528448, “Resistance to CDK7 inhibitors directed by acquired mutation of a conserved residue in cancer cells” (The EMBO Journal, 2025)
